The text below walks through data of patent US6451780B1, “Progesterone antagonists for the production of pharmaceutical agents for the treatment of dysfunctional uterine bleeding” (Schering Aktiengesellschaft, priority 1995, dated 2002).

Each structure is given as a SMILES string.

Assay type in all cases: in vivo
The subject of experiment [1] is Women with dysfunctional metrorrhagias. Nature of the experiment: Acute treatment of metrorrhagias with onapristone. To be noted: one-time oral 200-400 mg, preferably luteal phase. How it is done:
Acute Treatment of Metrorrhagias by One-time Administration of Onapristone Women with dysfunctional metrorrhagias are orally treated on a one-time basis with 200-400 mg of onapristone. Preferred is treatment in the luteal phase of the cycle. The treatment results in a cessation of bleeding within 2-4 days.

The subject of experiment [2] is Women with menorrhagias and hypermenorrhea. Nature of the experiment: Acute treatment of menorrhagias and hypermenorrhea with onapristone. How it is done: Acute Treatment of Menorrhagias and Hypermenorrhea by One-time Administration of Onapristone Women with menorrhagias and hypermenorrhea are orally treated on a one-time basis with 200-400 mg of onapristone on the 28th day of the cycle or on the first day of bleeding. The treatment induces menstruation-like bleeding of normal intensity (about 30 ml) and duration (about 5 days). Acute Treatment of Menorrhagias and Hypermenorrhea by Repeated Administration of Onapristone Women with menorrhagias and hypermenorrhea are orally treated until bleeding ceases on the 28th day of the cycle or on the first day of bleeding with 200-400 mg/day of onapristone, at most over 10 days.

Experiment [3] has the same test system. Nature of the experiment: Prophylactic treatment of menorrhagias and hypermenorrhea with onapristone. To be noted: 3-6 cycles. The procedure:
Prophylactic Treatment of Menorrhagias and Hypermenorrhea by One-time Administration of Onapristone Women with menorrhagias and hypermenorrhea are orally treated with 200-400 mg of onapristone every 28 days. […] The treatment is continued for 3-6 cycles. Prophylactic Treatment of Menorrhagias and Hypermenorrhea by Repeated Administration of Onapristone Women with menorrhagias and hypermenorrhea are orally treated every 28 days for a maximum of 10 days with 200-400 mg/day of onapristone. […] The treatment is continued for 3-6 cycles.

Experiment [4] relates to Women with dysfunctional metrorrhagias. The experiment in a line: Prophylactic treatment of metrorrhagias with onapristone. To be noted: 3-6 cycles. How it is done: Prophylactic Treatment of Metrorrhagias by One-time Administration of Onapristone Women with dysfunctional metrorrhagias are orally treated on a one-time basis with 200-400 mg of onapristone every 28 days. […] The treatment is continued for 3-6 cycles. Prophylactic Treatment of Metrorrhagias by Repeated Administration of Onapristone Women with dysfunctional metrorrhagias are orally treated every 28 days for a maximum of 10 days with 200-400 mg/day of onapristone. […] The treatment is continued over 3-6 cycles.

Setting [5] is: one-time oral 200-400 mg on 28th day of cycle or first day of bleeding.
The mark [6] stands for this setting: repeated oral 200-400 mg/day until bleeding ceases, at most 10 days, from 28th day of cycle or first day of bleeding.
The mark [7] stands for this setting: one-time oral 200-400 mg every 28 days.
[8] abbreviates: repeated oral 200-400 mg/day every 28 days for a maximum of 10 days.

On to `CN(C)c1ccc([C@H]2C[C@]3(C)[C@@H](CC[C@]3(O)CCCO)[C@@H]3CCC4=CC(=O)CCC4=C32)cc1` [onapristone, 11β-(4-dimethylaminophenyl)-17α-hydroxy-17β-(3-hydroxy-propyl)-13α-methyl-4,9-gonadien-3-one], for which the “cessation of bleeding within” value in experiment [1] fell in the range of 2 to 4 days. Also, the “duration of induced menstruation-like bleeding” value in experiment [2] (setting [5]), in experiment [2] (setting [6]), in experiment [3] (setting [7]), in experiment [3] (setting [8]), in experiment [4] (setting [7]) and in experiment [4] (setting [8]) was “about 5 days” throughout. Also, the “intensity of induced menstruation-like bleeding” value in experiment [2] (setting [5]), in experiment [2] (setting [6]), in experiment [3] (setting [7]), in experiment [3] (setting [8]), in experiment [4] (setting [7]) and in experiment [4] (setting [8]) was “about 30 ml” each time. Moreover, the increased blood loss entry in experiment [2] (repeated oral 200-400 mg/day until bleeding ceases, at most 10 days) is “prevents increased blood loss”. The “occurrence of menorrhagias and hypermenorrhea” value in experiment [3] (setting [7]) was “prevents the occurrence of menorrhagias and hypermenorrhea”; in experiment [3] (setting [8]), “prevents the occurrence of menorrhagias and hypermenorrhea”. The occurrence of metrorrhagias result in experiment [4] (setting [7]) and in experiment [4] (setting [8]) was “prevents the occurrence of metrorrhagias” each time.
